The values that follow are results of earlier work, collected in US20050255155A1, “Modified release cilostazol compositions” (Glenmark Pharmaceuticals Limited, priority 2004, published 2005).

For the data set the following is noted: BCS characterisation.

For `O=C1CCc2cc(OCCCCc3nnnn3C3CCCCC3)ccc2N1` [cilostazol, 6-[4-(1-cyclohexyl-1H-tertazole-5-yl)butoxy]-3,4-dihydro-2 (1H)-quinolinone], the solubility result is given as “low solubility”.
